Like-named read-outs stand apart in the source and are kept apart here.
Assays:
MELAS fibroblasts [1] = experiment: Mitochondrial mass, morphology and networking (MTG live cell confocal analysis); assay type: cell-based, human; details: three-day exposure; NaBt 2.5 mM, TBN 1.5 mM, AN9 300 μM
Text: FIG. 17A-17C are images from microscopy and graphs showing that butyrates rescue the mitochondrial phenotype in MELAS fibroblasts. (A) Confocal analysis of healthy and MELAS fibroblasts treated as indicated and labeled with the MTG dye; scale bar=10 (B) Analysis of the mitochondrial mass; n=3 (60 cells per experiment; ^‡p<0.05, unpaired T-test *p<0.05, paired T-test). (C) Analysis of Δψm (^‡p<0.05, unpaired T-test; *p<0.05, paired T-test).
(§1) Butyrates rescue the mitochondrial mass, morphology, networking, membrane potential, and cellular ATP levels in MELAS fibroblasts. Skin fibroblasts from two MELAS patients and from a healthy subject as a control were used. Dose-dependent analyses of butyrates to determine their best concentrations for eliciting an optimal mitochondrial response without cellular toxicity was performed. Healthy and MELAS fibroblasts were treated with PBS, NaBt (2.5 mM), TBN (1.5 mM), or AN9 (300 μM) for three days before labeling with the MTG dye for live cell confocal analysis.
as §1, with “networking, and” for “networking,”, “potential” for “potential, and cellular ATP levels”, “butyrates was performed” for “butyrates”, “toxicity.” for “toxicity was performed.”

MELAS fibroblasts [2] = experiment: Morphometric analysis of mitochondrial connectivity (Image J); assay type: cell-based, human; details: Image J analysis of MTG-labeled fibroblasts
Experimental: FIG. 18 is a graph showing that butyrate and its derivatives rescue the mitochondrial dynamics and connectivity in MELAS fibroblasts.
as §1, with “networking, and” for “networking,”, “potential” for “potential, and cellular ATP levels”, “butyrates was performed” for “butyrates”, “toxicity.” for “toxicity was performed.”

[3] = system: healthy and MELAS fibroblasts; experiment: Dose-dependent studies for optimal safe concentrations; assay type: cell-based, human; details: three days of treatment
Text: Experimental approaches. Five distinct molecular tools were used to investigate mitochondrial biogenesis: 1) the mitochondrial-specific dyes, MitoTracker® Green (MTG) and MitoTracker® Red (MTR); 2) the mito-GFP or mito-dsRed vector to fluorescently label mitochondria; 3) antibodies against mtDNA, COXVα, or SOD2; 4) the fluorescent PicoGreen® dye labeling mtDNA; and 5) quantitative PCR to determine mtDNA copy number.
as §1

[4] = cited from earlier work; for toxicity or side effects on oral administration: TBN 1.5 mM, AN9 300 μM concentrations
[5] = cited from earlier work
PC12-ND6 cells [6] = details: dbcAMP alone, PC12 cell system; cited from earlier work
MELAS fibroblasts [7] = experiment: Apoptosis induced by hydroxamate HDACis; assay type: cell-based, human
PC12-ND6 cells [8] = details: TSA 0.66 μM, control HDAC inhibitor; cited from earlier work
[9] = human, in vivo; cited from earlier work
PC12-ND6 cells [10] = experiment: Cell death upon chloramphenicol exposure; assay type: cell-based; details: chloramphenicol 0, 15, 30, 60 μM, two days
Text: (§2) FIG. 14A-14E are images from microscopy showing that pre-treatment of PC12-ND6 cells with NaBt prevents chloramphenicol-mediated decrease of mitochondrial mass. (A) Graph of PC12-ND6 cell death upon exposure to different concentrations of chloramphenicol (Cm). Percent of cell death±SEM (n=250 cells). (B) Quantitative immunoblot analysis of mitochondrial-encoded MT-CO1 protein (green) and nuclear-encoded SDH-A protein (red) in Cm-treated PC12-ND6 cells. (C) Graph of MT-CO1/SDH-A ratio normalized to untreated PC12-ND6 cells. Mean±SEM (n=3; compared to untreated cells *p=0.0052, **p=0.0048, and ***p=0.0034). (D) Confocal micrographs of untreated and Cm-treated PC12-ND6 cells transfected with the vector mito-GFP. Scale bar represents 5 μm. (E) Confocal micrographs of NaBt pre-treated PC12-ND6 cells transfected with the vector mito-GFP and exposed to Cm. Scale bar represents 5 μm.
(§3) The efficacy of chloramphenicol treatment was determined by simultaneously examining the expression levels of the nuclear-encoded succinate dehydrogenase (SDH-A) subunit of Complex II and the mitochondrial-encoded subunit I of Complex IV (MT-COI) using a quantitative immunoblot approach. […] The effect of chloramphenicol on mitochondrial mass by live-cell confocal microscopy using PC12-ND6 cells transfected with the vector mito-GFP was confirmed.

SDH-A = experiment: Quantitative immunoblot of nuclear-encoded SDH-A; assay type: cell-based; details: chloramphenicol 15-60 μM
Text: as §2, §3

MT-COI = experiment: Quantitative immunoblot of mitochondrial-encoded MT-COI; assay type: cell-based; details: lowest dose of chloramphenicol
Text: as §2, §3

PC12-ND6 cells [11] = experiment: Mitochondrial mass under chloramphenicol (mito-GFP live-cell confocal microscopy); assay type: cell-based; details: chloramphenicol-treated
Text: as §2, §3

PC12-ND6 cells [12] = experiment: NGF (100 ng/ml)-mediated neurite outgrowth after chloramphenicol; assay type: cell-based; details: chloramphenicol lowest concentration two days, then NGF 100 ng/ml three days
Text: FIG. 15A-15C are images from microscopy and a graph showing that Pre-treatment of PC12-ND6 cells negates the inhibitory effect of chloramphenicol on NGF-mediated neuronal differentiation. (A) Confocal micrographs of untreated and Cm-treated PC12-ND6 cells transfected with the vector mito-GFP and exposed to NGF. Scale bar represents 20 μm. (B) Confocal micrographs of NaBt pre-treated PC12-ND6 cells transfected with the vector mito-GFP and exposed to chloramphenicol prior to NGF treatment. Scale bar represents 20 μm. (C) Graph of average total neurite length. Mean±SEM (n=50 cells; compared to untreated PC12-ND6 cells *p=0.0001; compared to non-NaBt-treated PC12-ND6 cells with corresponding Cm concentration **p=0.0001).
Based on the results that NaBt endows PC12-ND6 cells with increased mitochondrial mass through biogenesis, resulting in accelerated neuronal differentiation, it was examined whether exposure to NaBt for three days could confer protection to chloramphenicol-mediated inhibition of neuronal differentiation upon NGF signaling.

[13] = system: E17.5 hippocampal neurons; experiment: Neuronal stage 3 frequency with chloramphenicol and NaBt; assay type: cell-based; details: no NaBt
Text: FIG. 16A-16I are images from microscopy and a graph showing that Pre-treatment of E17.5 hippocampal neurons with NaBt protects against chloramphenicol-induced loss of neuronal differentiation. (A-D) Confocal micrographs of E17.5 hippocampal neurons exposed to different concentrations of chloramphenicol at 2DIV and labeled with anti tubulin antibody (red) and nuclear counterstain DAPI (blue) at 3DIV. Scale bar represents 10 μm. (E-H) Confocal micrographs of E17.5 hippocampal neurons treated with NaBt (2 mM) at 1DIV prior to exposure to different concentrations of chloramphenicol at 2DIV and labeled with anti tubulin antibody (red) and nuclear counterstain DAPI (blue) at 3DIV. Scale bar represents 10 μm. (I) Graph of E17.5 β-III^+ hippocampal neurons at the neuronal stage 3. Mean±S.D. (n=250 cells; compared to untreated control *p=0.0001; compared to the corresponding non-NaBt treated sample **p=0.0001; compared to non-NaBt treated cells exposed to Cm at 30 μM‡p=0.007).
The consequences of chloramphenicol exposure on untreated or NaBt-treated E17.5 hippocampal neurons was examined. At 1DIV, dissociated E17.5 hippocampal neurons were switched to differentiation medium in the absence or presence of NaBt (2 mM) for 24 hours before being treated with increasing concentrations of chloramphenicol (0, 15, 30, and 60 μM) for 24 hours. At 3DIV, their phenotypic differentiation was examined by immunocytochemistry using an antibody against the pan-neuronal marker β-III tubulin and quantified the percent of neurons having reached the developmental stage 3 for each experimental condition. As expected, only half of untreated neurons reached stage 3 in the absence of NaBt, while more than 90% of NaBt-treated neurons achieved such degree of differentiation, thereby forming an elaborate neuritic network (FIGS. 16A, E, and I).

Which “mitochondrial mass, morphology, and networking” value (MELAS fibroblasts [1]) does the source give for CCCC(=O)OCC(COC(=O)CCC)OC(=O)CCC [TBN, tributyrin] here?
Its value is “restored normal mitochondrial mass, morphology, and networking”.

And the connectivity among mitochondria (MELAS fibroblasts [2])?
Its connectivity among mitochondria is “rescue the connectivity among mitochondria”.

And the “optimal safe concentration for eliciting maximal mitochondrial biogenesis without cellular toxicity” value [3]?
Its value is 1.5 mM.

What about the “toxicity or side effects on oral administration” value [4] of the same compound?
Its value is “without toxicity or side effects”.

And the “concentration pharmacologically attainable via oral administration without toxicity or side effects” value ([4]; oral)?
Its value is “up to 2 mM”.

What does the source list for CCCC(=O)OCOC(=O)C(C)(C)C [AN9, pivaloyloxymethyl butyrate]?
mitochondrial mass, morphology, and networking (MELAS fibroblasts [1]): restored normal mitochondrial mass, morphology, and networking; connectivity among mitochondria (MELAS fibroblasts [2]): rescue the connectivity among mitochondria; optimal safe concentration for eliciting maximal mitochondrial biogenesis without cellular toxicity [3]: 0.3 mM; toxicity or side effects on oral administration [4]: without toxicity or side effects; toxicity ([4]; in vivo): low toxicity; oral pharmacological concentrations relative to NaBt ([4]; orally administered): 140 times lower than NaBt; cell membrane permeability [5]: increased cell membrane permeability

For CCCC(=O)Nc1ncnc2c1ncn2[C@@H]1O[C@@H]2COP(=O)(O)O[C@H]2[C@H]1OC(=O)CCC [dbcAMP], which neurite length (PC12-ND6 cells [6]) is on record?
The neurite length was 15-20 μm.

Which apoptosis (MELAS fibroblasts [7]) does the source give for CC(/C=C/C(=O)NO)=C\[C@@H](C)C(=O)c1ccc(N(C)C)cc1 [trichostatin A] here?
The apoptosis was “induce apoptosis”.

What about the cell death (PC12-ND6 cells [8]) of the same compound?
The cell death was “mild cell death”.

Which apoptosis (MELAS fibroblasts [7]) does the source give for O=C(CCCCCCC(=O)Nc1ccccc1)NO [vorinostat] here?
Its apoptosis is “induce apoptosis”.

For CCCC(CCC)C(=O)O [Valproic acid], which effect on seizures [9] is on record?
The effect on seizures was “propensity to worsen seizures”.

Which results are given for O=C(N[C@H](CO)[C@H](O)c1ccc([N+](=O)[O-])cc1)C(Cl)Cl [chloramphenicol]?
cell death (PC12-ND6 cells [10]): negligible cell death; SDH-A expression levels (SDH-A): none of the chloramphenicol concentrations altered; MT-COI expression (MT-COI): abolished most of MT-COI expression; mitochondrial mass (PC12-ND6 cells [11]): concentration-dependent decrease of mitochondrial mass; reduction in total neurite length (PC12-ND6 cells [12]): 43%; percent of neurons at stage 3 ([13]; chloramphenicol 15 μM): did not alter the percent of neurons at stage 3; decreased transition to stage 3 ([13]; chloramphenicol 30 μM): 27%; decreased transition to stage 3 ([13]; chloramphenicol 60 μM): 54%
